Results on 4 molecules are retold here after patent US20240262812A1, “N-SUBSTITUTED PHENYLSULFONAMIDE COMPOUND AND USE THEREOF” (Shanghai Leado Pharmatech Co., Ltd., priority 2021, published 2024).

For assay [1], the system named is acute gastric mucosal injury. To be noted: background; cited from earlier work.
The subject of assay [2] is DNBS, TNBS, or DSS induced colitis. The settings on record: administration of selective TRPA1 inhibitor; background; cited from earlier work.
The test system of assay [3] is DNBS induced colitis in Wistar rats. Put plainly: DNBS induced colitis model in Wistar rats. Type of assay: in vivo, rat. To be noted: oral once a day Day 0 to Day 6, compounds 10 mg/kg, osalazine sodium 300 mg/kg. Further details: Degree of adhesion (score) / Degree of intestinal infarction (score) / Severity of ulcer (score) / Degree of intestinal wall thickening (score) / Macroscopic colon score: scale not given here. From the text: The therapeutic effect of compounds prepared in some examples of the present invention on 2,4-dinitrobenzenesulfonic acid (DNBS) induced ulcerative colitis in Wistar rats (corresponding to Crohn's disease) was investigated.
• Animal species and strains: Wistar rats • Administration record: No administration history • Gender and weight: Male, about 150 g • Breeding party/supplier: Shanghai SLAC Laboratory Animal Co., Ltd • Adaptation period: 5 days • Room: Regular Area Rooms • Indoor temperature: 20-26° C. • Indoor relative humidity: 40-70% • Lighting: Fluorescent lighting, 12-hour illumination (08:00-20:00) and 12-hour no illumination • Animal feeding: 2-4 rats per cage (same administration group) • Food: Unlimited access to feed (disinfected by irradiation, Jiangsu Xietong Pharmaceutical Bio-engineering Co., Ltd., China) • Water: Unlimited access to drinking water (treated with reverse osmosis and high-pressure sterilization)
A total of 80 Wistar rats were purchased from Shanghai SLAC Laboratory Animal Co., Ltd, of which 10 were used as backup animals to select animals with suitable weight range included in the groups, in order to control the fluctuation of disease severity caused by weight fluctuations.
BioBook software was used to screen 70 animals for random grouping based on animal weight to ensure that the weight values of each group of animals were similar to reduce bias.
3.1 DNBS powder was dissolved in 30% ethanol with a final concentration of 60 mg/mL.
3.2 Induction of colorectal inflammation: Before the experiment, rats were fasted for 40 hours and subcutaneously injected with 5% glucose saline during the fasting period. On the day 0 of the experiment, fasting rats were anesthetized by intraperitoneal injection of Zoletil and 5 mg/kg Xylazine. G2 group-G7 group, a hose was extended from the anus to the left curvature of the colorectum, and colorectal inflammation in rats was induced with DNBS enema. The normal control group (G1) was treated with 30% ethanol enema using the same method.
3.3. Dosage regimen: After DNBS induction in G1 and G2 groups of animals, solvent was administered. After DNBS induction in G3 group, 300 mg/kg of oxalazine sodium was administered. After DNBS induction in G4 to G7 groups, 10 mg/kg of the compounds of the present invention were administered respectively. Please refer to Table 3 for the administration time, specific administration dosage, and administration route. Starting from day 0 of modeling, the drugs were administered continuously for 7 days, and the animals were euthanized on day 6.
3.4 Testing indicators: After the experiment, all animals were euthanized by inhaling excessive CO2 and dislocation of cervical vertebra. After the abdominal cavity was cut open, the colorectum was taken out and the length of it was immediately measured. Then the colorectum was longitudinally cut open and rinsed clean. The weight of the colorectum and the area of the ulcer were recorded and the whole was photographed. At the same time, the damage to the rat colorectum was evaluated macroscopically according to Table 4.
The health status of animals and their comprehensive response to surgery and medication were observed every day.
The experimental data was calculated as mean±standard error. Statistical analysis was performed using Graphpad Prism, SPSS, or Sigmaplot software. The specific data is presented in the form of charts. P<0.05 is considered to have statistical differences.

The target in assay [4] is T1, mTRPA1 (Mus musculus, UniProt Q8BLA8).
T1 construct: expressed in transfected cells
Kind of assay: IonWorks Barracuda (IWB) automated patch clamp, TRPA1 inhibitory activity. Type of assay: cell-based. To be noted: HEK293 cells stably expressing mTRPA1, current induced by AITC, amplitude at +100 mV; read-out: IC50 (inhibition activity on TRPA1). The essentials: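 HEK293 cells stably expressing mouse TRPA1, perforated-patch whole-cell recording (amphotericin B) on IonWorks Barracuda; holding 0 mV, −100 to +100 mV ramp over 300 ms every 10 s. Current evoked by 300 µM AITC, leak-subtracted, amplitude taken at +100 mV; IC50 from fitted dose-effect curves, HC030031 as plate reference.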

The target in assay [5] is T2, chemokine receptor CCR9 (Homo sapiens, UniProt P51686).
T2 construct: expressed in transfected cells
T2 sequence (P51686 1-369): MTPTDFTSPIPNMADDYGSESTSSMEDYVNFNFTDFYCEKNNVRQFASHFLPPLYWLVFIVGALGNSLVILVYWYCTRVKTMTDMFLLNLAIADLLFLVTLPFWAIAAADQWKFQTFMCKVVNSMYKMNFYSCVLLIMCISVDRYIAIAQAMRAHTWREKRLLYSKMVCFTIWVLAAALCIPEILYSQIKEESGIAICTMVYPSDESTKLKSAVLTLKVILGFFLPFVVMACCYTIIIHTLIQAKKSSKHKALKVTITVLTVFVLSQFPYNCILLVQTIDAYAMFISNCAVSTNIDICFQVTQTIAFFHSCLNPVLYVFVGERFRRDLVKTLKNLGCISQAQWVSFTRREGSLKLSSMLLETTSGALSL
Put plainly: CCR9 antagonistic activity, calcium flow (Fluo-4, FlexStation), CCL25 agonist. It counts as cell-based. The settings on record: antagonistic mode, CCL25 150 nM. The source says:
2.1 Main reagents: DMEM culture medium (GIBCO); dimethyl sulfoxide (Sigma); FLUO-4, AM (Invitrogen) 2.2 Main instrument: Flexstation-3 (Molecular Devices) The test concentration gradient of the compound and replicates were set according to the requirement of testing ICSO. All test substances with 8 concentrations were set, with 3 replicates for each concentration. By establishing a cell line that cotransformed the receptor and G16, the receptor being activated can induce the activation of Gα16 protein, thereby activating phospholipase C (PLC) to produce IP3 and DAG. IP3 can bind to the IP3 receptor on the intracellular endoplasmic reticulum and mitochondria, leading to the release of intracellular calcium. Therefore, measuring changes in intracellular calcium can serve as a method for detecting the activation status of target receptor. Fluo-4/AM is a calcium fluorescent probe indicator used to measure calcium ion, as a non-polar lipophilic compound, under the action of cell lipase after entering cells, the AM group dissociates and releases Fluo-4; since Fluo-4 is a polar molecule, it is not easy to pass through lipid bilayers, allowing it to remain in the cell for a long time. Ultimately, the level of G protein activation can be reflected by measuring the excited fluorescence intensity. […] Cells stably expressing the target receptor/Ga16 were planted on a 96 well plate and cultured overnight. 2. The culture solution was removed from the well planted cells, then 40 μL/well of freshly prepared dye was added. The mixture was incubated at a constant temperature in a 37° C. incubator for 40 minutes. 3. The drug to be tested was diluted with calcium buffer and mixed well. 4. The dye was absorbed and discarded. After washed once with freshly prepared calcium buffer, 50 μL of calcium buffer that dissolved the drug to be tested was added for replacement. 5. The FlexStation II instrument was used for detection. Starting from the 15th second, […] dissolved with known agonist was automatically added by the instrument, and finally the fluorescence value at 525 nm was readed. The following formula was used to calculate the cell response rate (% Response) for each sample under each concentration. […] IC50 value was calculated using GraphPad Prism.

SMILES strings stand for the structures.

T1 sequence (Q8BLA8 whole entry): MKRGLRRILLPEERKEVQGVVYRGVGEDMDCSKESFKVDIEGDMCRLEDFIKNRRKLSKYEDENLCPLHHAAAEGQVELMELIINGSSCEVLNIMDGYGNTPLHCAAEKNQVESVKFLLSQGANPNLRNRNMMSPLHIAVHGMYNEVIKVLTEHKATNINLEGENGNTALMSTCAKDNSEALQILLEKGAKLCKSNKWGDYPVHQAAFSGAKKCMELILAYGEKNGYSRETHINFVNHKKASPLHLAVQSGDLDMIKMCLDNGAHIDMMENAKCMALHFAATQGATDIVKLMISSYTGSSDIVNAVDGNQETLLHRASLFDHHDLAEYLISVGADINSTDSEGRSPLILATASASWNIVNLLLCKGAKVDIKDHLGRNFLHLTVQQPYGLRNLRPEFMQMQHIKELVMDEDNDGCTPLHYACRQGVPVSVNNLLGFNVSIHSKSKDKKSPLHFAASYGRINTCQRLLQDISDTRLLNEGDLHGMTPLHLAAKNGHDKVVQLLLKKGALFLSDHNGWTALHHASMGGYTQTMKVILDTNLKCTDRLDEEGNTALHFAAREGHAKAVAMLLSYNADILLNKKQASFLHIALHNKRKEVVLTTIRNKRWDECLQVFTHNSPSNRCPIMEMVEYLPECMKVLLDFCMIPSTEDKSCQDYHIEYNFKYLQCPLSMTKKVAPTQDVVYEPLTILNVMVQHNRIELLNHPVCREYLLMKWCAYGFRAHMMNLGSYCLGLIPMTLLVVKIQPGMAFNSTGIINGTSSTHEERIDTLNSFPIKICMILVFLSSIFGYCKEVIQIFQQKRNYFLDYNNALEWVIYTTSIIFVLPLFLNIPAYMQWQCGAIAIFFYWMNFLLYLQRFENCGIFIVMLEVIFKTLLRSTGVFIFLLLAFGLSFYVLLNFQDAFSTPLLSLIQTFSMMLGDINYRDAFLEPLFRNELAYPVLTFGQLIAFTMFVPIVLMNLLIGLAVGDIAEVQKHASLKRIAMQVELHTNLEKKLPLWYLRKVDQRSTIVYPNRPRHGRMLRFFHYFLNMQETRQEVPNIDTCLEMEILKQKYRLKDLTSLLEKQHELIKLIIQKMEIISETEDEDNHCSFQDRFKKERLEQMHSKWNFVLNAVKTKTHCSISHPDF

On to `CC(C)c1ccc(NC(=O)Cn2cnc3c2c(=O)n(C)c(=O)n3C)cc1` [HC-030031, HC030031], for which the “result in rat model of acute gastric mucosal injury” value in assay [1] is listed as “showed positive result”. For the same molecule, the “symptom of colitis in animals” value in assay [2] is reported as “significantly alleviated the symptom of colitis in animals”.

Regarding `O=C([O-])c1cc(/N=N/c2ccc(O)c(C(=O)[O-])c2)ccc1O.[Na+].[Na+]` [osalazine sodium, reference compound], in assay [3] (mean score per Table 4), the “Degree of adhesion (score)” value is listed as 0.00, the “Degree of intestinal infarction (score)” value was found to be 0.00, the “Degree of intestinal wall thickening (score)” value is given as 0.40 and the “Severity of ulcer (score)” value was 1.50. In assay [3] (mean total score), this molecule came in with a Macroscopic colon score of 1.90. In assay [3] (mean), this molecule had a Colon length of 14.33 cm, a Colon weight of 1.41 g, a Ulcer area of 0.30 cm^2 and a Ulcer length of 0.71 cm. The molecule also gave a Ulcer width in assay [3] (mean) of 0.34 cm.

On to `O=C([O-])c1cc(/N=N/c2ccc(O)c(C(=O)[O-])c2)ccc1O.[Na+].[Na+]` [oxalazine sodium, reference compound], for which, in assay [3] (mean), the Colon weight result is given as “significantly reduce” and the Ulcer area result is “significantly reduce”.

For orientation: IC50 means the concentration at which inhibition is half-maximal. What is called inhibition is the share of the control response that was lost under treatment. Consider `CNCc1ccc(-c2ccoc2)c(NS(=O)(=O)c2cccs2)c1` [IA-44, N-(2-(furan-3-yl)-5-((methylamino)methyl)phenyl)thiophene-2-sulfonamide], for which the figures for the IC50 in assay [4] and in assay [5] were 1 to 5 µM and above 100 µM, respectively. Further, the inhibition at 100 µM in assay [5] (100 μM, read-out: Inhibition rate (%) (100 μM)) came out at 12%.
